Patent US8778964B2, “Hydroxy-substituted imidazo[1,2-a]-pyridinecarboxamides and their use” (Bayer Pharma Aktiengesellschaft, priority 2012, dated 2014)
Counter-ions that a name gives are not always drawn.

Tested on: recombinant guanylate cyclase reporter cell line
Test: Action on recombinant guanylate cyclase reporter cell line (MEC)
Assay type: cell-based
Details: in some cases mean values obtained from individual determinations
How it was run: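 Cell-based reporter assay with recombinant guanylate cyclase expressed in a reporter cell line, per a published method. Activity reported as minimal effective concentration (MEC), in some cases as the mean of individual determinations.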

Row | SMILES | minimal effective concentration
1 | Cc1nc2c(OCc3c(F)cccc3F)cccn2c1C(=O)NC(c1ccc(F)cc1)C(C)(C)O (racemic) [Example 152, rac-8-[(2,6-difluorobenzyl)oxy]-N-[1-(4-fluorophenyl)-2-hydroxy-2-methylpropyl]-2-methylimidazo[1,2-a]pyridine-3-carboxamide] | 0.3 µM
2 | Cc1nc2c(OCc3c(F)cccc3F)cc(Cl)cn2c1C(=O)N[C@@H](CO)CCO [Example 128, 6-chloro-8-[(2,6-difluorobenzyl)oxy]-N-[(2R)-1,4-dihydroxybutan-2-yl]-2-methylimidazo[1,2-a]pyridine-3-carboxamide] | 0.3 µM
3 | CCCC[C@H](CO)NC(=O)c1c(C)nc2c(OCc3c(F)cccc3Cl)cccn12 [Example 3, 8-[(2-chloro-6-fluorobenzyl)oxy]-N-[(2R)-1-hydroxyhexan-2-yl]-2-methylimidazo[1,2-a]pyridine-3-carboxamide] | 0.1 µM
4 | Cc1nc2c(OCc3ccccc3Br)cccn2c1C(=O)NC(CO)CO [Example 54, 8-[(2-bromobenzyl)oxy]-N-(1,3-dihydroxypropan-2-yl)-2-methylimidazo[1,2-a]pyridine-3-carboxamide] | 10 µM
5 | Cc1nc2c(OCc3c(F)cccc3F)cccn2c1C(=O)NC(CO)CCC(F)(F)F (single isomer, unassigned; ent-8) [Example 122, ent-8-[(2,6-Difluorobenzyl)oxy]-2-methyl-N-(5,5,5-trifluoro-1-hydroxypentan-2-yl)imidazo[1,2-a]-pyridine-3-carboxamide] | 0.03 µM
6 | Cc1nc2c(OCC3CCCCC3)cccn2c1C(=O)N[C@@H](C)CO [Example 75, 8-(cyclohexylmethoxy)-N-[(2S)-1-hydroxypropan-2-yl]-2-methylimidazo[1,2-a]pyridine-3-carboxamide] | 0.22 µM
7 | Cc1nc2c(OCC3CCCCC3)cccn2c1C(=O)NC(CO)COC(C)(C)C (stereo not drawn) [Example 94, N-(1-tert-butoxy-3-hydroxypropan-2-yl)-8-(cyclohexylmethoxy)-2-methylimidazo[1,2-a]-pyridine-3-carboxamide] | 3 µM
8 | Cc1nc2c(OCc3c(F)cccc3F)cccn2c1C(=O)N[C@@H](CO)CC(C)C [Example 39, 8-[(2,6-Difluorobenzyl)oxy]-N-[(2R)-1-hydroxy-4-methylpentan-2-yl]-2-methylimidazo[1,2-a]-pyridine-3-carboxamide] | 0.03 µM
9 | Cc1nc2c(OCC3CCCCC3)cccn2c1C(=O)NC(CO)(CO)CO [Example 77, 8-(cyclohexylmethoxy)-N-[1,3-dihydroxy-2-(hydroxymethyl)propan-2yl]-2-methylimidazo[1,2-a]pyridine-3-carboxamide formate] | 0.3 µM
10 | Cc1nc2c(OCc3c(Cl)cccc3Cl)cccn2c1C(=O)NC(CO)CO [Example 53, 8-[(2,6-dichlorobenzyl)oxy]-N-(1,3-dihydroxypropan-2-yl)-2-methylimidazo[1,2-a]-pyridine-3-carboxamide] | 10 µM
11 | Cc1nc2c(OCc3c(F)cccc3F)cccn2c1C(=O)NC(CC(F)(F)F)C(C)(C)O (single isomer, unassigned; ent-8) [Example 154, ent-8-[(2,6-Difluorobenzyl)oxy]-2-methyl-N-(1,1,1-trifluoro-4-hydroxy-4-methylpentan-3-yl)-imidazo[1,2-a]pyridine-3-carboxamide (enantiomer B)] | 0.03 µM
12 | CCCC[C@H](CO)NC(=O)c1c(C)nc2c(OCc3c(F)cccc3F)cc(CC)cn12 [Example 60, 8-[(2,6-difluorobenzyl)oxy]-6-ethyl-N-[(2R)-1-hydroxyhexan-2-yl]-2-methylimidazo[1,2-a]pyridine-3-carboxamide] | 0.1 µM
13 | Cc1nc2c(OCc3c(F)cccc3F)cccn2c1C(=O)NC(C)C(O)C(F)(F)F (single isomer, unassigned) [Example 143, 8-[(2,6-Difluorobenzyl)oxy]-2-methyl-N-(4,4,4-trifluoro-3-hydroxybutan-2-yl)imidazo[1,2-a]-pyridine-3-carboxamide] | 0.03 µM
14 | CC[C@@H](CO)NC(=O)c1c(C)nc2c(OCC3CCCCC3)cccn12 [Example 88, 8-(cyclohexylmethoxy)-N-[(2S)-1-hydroxybutan-2-yl]-2-methylimidazo[1,2-a]pyridine-3-carboxamide] | 1 µM
15 | C#Cc1cc(OCc2c(F)cccc2F)c2nc(C)c(C(=O)N[C@@H](CO)CCCC)n2c1 [Example 126, 8-[(2,6-Difluorobenzyl)oxy]-6-ethynyl-N-[(2R)-1-hydroxyhexan-2-yl]-2-methylimidazo[1,2-a]-pyridine-3-carboxamide] | 0.1 µM
16 | Cc1nc2c(OCc3cccc(Cl)c3Cl)cccn2c1C(=O)NCCC1(O)CCCC1 [Example 47, 8-[(2,3-dichlorobenzyl)oxy]-N-[2-(1-hydroxycyclopentyl)ethyl]-2-methylimidazo[1,2-a]-pyridine-3-carboxamide] | 0.3 µM
17 | CCc1nc2c(OCC3CCC3)cccn2c1C(=O)N[C@@H](C)CO [Example 58, 8-(cyclobutylmethoxy)-2-ethyl-N-[(2S)-1-hydroxypropan-2-yl]imidazo[1,2-a]pyridine-3-carboxamide formic acid salt] | 3 µM
18 | COCC(O)CNC(=O)c1c(C)nc2c(OCC3CCCCC3)cccn12 (stereo not drawn) [Example 79, 8-(cyclohexylmethoxy)-N-(2-hydroxy-3-methoxypropyl)-2-methylimidazo[1,2-a]pyridine-3-carboxamide] | 0.3 µM
19 | Cc1nc2c(OCc3c(F)cccc3F)cccn2c1C(=O)NC(CO)CCC(O)C(F)(F)F (single isomer, unassigned) [Example 138, 8-[(2,6-Difluorobenzyl)oxy]-2-methyl-N-(6,6,6-trifluoro-1,5-dihydroxyhexan-2-yl)imidazo[1,2-a]-pyridine-3-carboxamide] | 0.1 µM
20 | COC(=O)[C@H](CO)NC(=O)c1c(C)nc2c(OCc3c(F)cccc3F)cccn12 [Example 164, Methyl N-({8-[(2,6-difluorobenzyl)oxy]-2-methylimidazo[1,2-a]pyridin-3-yl}carbonyl)-L-serinate] | 0.2 µM
21 | Cc1nc2c(OCc3c(F)cccc3F)cccn2c1C(=O)NC[C@@H]1CCCC[C@H]1O (racemic) [Example 27, (rac)-trans-8-[(2,6-difluorobenzyl)oxy]-N-[(2-hydroxycyclohexyl)methyl]-2-methylimidazo[1,2-a]pyridine-3-carboxamide] | 0.3 µM
22 | Cc1nc2c(OCc3c(F)cccc3F)cccn2c1C(=O)N[C@H]1c2ccccc2C[C@H]1O [Example 40, 8-[(2,6-difluorobenzyl)oxy]-N-[(1S,2R)-2-hydroxy-2,3-dihydro-1H-inden-1-yl]-2-methylimidazo[1,2-a]pyridine-3-carboxamide] | 0.1 µM
23 | Cc1nc2c(OCC3CCCCC3)cccn2c1C(=O)N[C@@H]1CCC[C@@H]1O (relative stereo) [Example 81, 8-(cyclohexylmethoxy)-N-[cis-2-hydroxycyclopentyl]-2-methylimidazo[1,2-a]-pyridine-3-carboxamide] | 0.65 µM
24 | Cc1nc2c(OCC3CCC3)cccn2c1C(=O)NCCOCCO [Example 98, 8-(cyclobutylmethoxy)-N-[2-(2-hydroxyethoxy)ethyl]-2-methylimidazo[1,2-a]pyridine-3-carboxamide] | 3 µM
